Consider 4 substances from patent US5776685A, “Protein kinase C assay” (Joslin Diabetes Center, priority 1996, dated 1998).

“Also recorded” adds a separate entry of the source.

The test system of data set [1] is Saccharomyces cerevisiae strain 334 expressing bovine PKC alpha. The experiment in a line: 45Ca2+ uptake into yeast cells expressing PKC alpha forms. It is filed as cell-based. The note with it: for Ca2+ uptake after PMA stimulation over the control cell background: 1 μM PMA; for increase in Ca^2+ uptake (basal): without PMA stimulation, versus control cells. As for the experimental part:
FIG. 5 is a graph of the modulation of extracellular Ca2+uptake by PKC alpha wild type and mutants.
^45 Ca^2 + uptake. Expressing yeast cells after 16 h in 2% galactose medium were washed with PBS when reaching 0.5 O.D.600. 10^7 cells were suspended in 100 μl of 50 mM MES pH 6.5, 5 mM MgSO4 and incubated with 1 μM PMA for 1 h at 30 degrees C under shaking on 96-well plates. Subsequently uptake of 2 μCi 45 Ca2+ at 300 μM CaCl2 was measured for 2 hours. Cells were rapidly transferred to Multiscreen filtration microtiter plates (Millipore) and washed four times with 200 μl of 10 mM MES, 10 mM Tris, 35 mM CaC12 pH 6.0. Filters were dried and cell-associated radioactivity was determined by liquid scintillation spectroscopy.
Ca^2+ influx has been reported in response to PKC activation in a variety of eukaryotic cells such as Nitella syncarpa plasmalemma, Aplysia bag cell neurons, rat ventricular myocytes and rat pituitary cells. To test whether the measured catalytic activities and the yeast phenotype correlate with other biological responses mediated by PKC, ^45 Ca^2+ uptake into expressing cells was determined after PMA stimulation. […] These responses are consistent with the catalytic activities and phenotypic responses of the mutants: elevated basal activity of ND153, full and reduced phorbol ester-stimulated activity of normal PKC alpha and D172-225, respectively, and lack of activity for CD26.

Data set [2] shares this test system. The experiment in a line: Phenotypic screen of PKC alpha mutant activity by yeast colony size on agar plates. Format: cell-based. The note with it: 2% galactose; for yeast colony size / phenotype: independent of phorbol ester; for yeast colony size: 3 days. As for the experimental part: The phenotypic screen of PKC alpha mutant activity by yeast colony size was performed as follows. […] Plates (9 cm diameter) were photograph after 3 days.
Galactose stimulation of cDNA expression resulted for some PKC forms in specific, decreased yeast colony sizes which were either dependent on or independent of phorbol ester activation after 3 days. […] Microscopically small colonies expressing ND153 grew to visible sizes with rates independently of PMA. Colonies expressing PKC alpha grew even more slowly to visible sizes during continued incubation in the presence of PMA.

For data set [3], the system named is bovine PKC alpha. Kind of data set: PKC catalytic activity in vitro (phosphorylation of [ser25]PKC19-31 in detergent cell extracts). Format: biochemical. Particulars: for PMA and Ca^2+ stimulated mutant PKC activity: Ca^2+: Ca^2+ stimulation of in vitro catalytic activity; for PMA and Ca^2+ stimulated mutant PKC activity: PMA: PMA stimulation, common symbol for in vitro catalytic activity and PMA-mediated increase of cell doubling time; for PMA and Ca^2+ stimulated mutant PKC activity: -: no stimulus (basal), common symbol for in vitro catalytic activity and cell doubling time response; for stimulation of catalytic activity by phorbol ester: PMA + phosphatidylserine. As to the method: FIG. 4 is a graph which compares PKC mutant and wild type catalytic activities in vitro. […] Catalytic activity was stimulated by combinations of phosphatidylserine (PS), the phorbol ester PMA and calcium ions (Ca^2+). PS, open; PMA+PS, solid; Ca^2+ +PS, diagonally striped.
Cell lysis. About 6×10^8 expressing cells were washed in PBS and were resuspended in 1 ml lysis buffer containing 1% Triton X100, 50 mM Hepes pH 7.4, 15-mM NaC1, 5 mM EDTA, 5 mM EGTA, 10 μg/ml pepstatin, 40 μg/ml leupeptin, 10 μg/ml aprotinin and 200 μg/ml PMSF. Cell suspensions mixed with the same volume of acid washed glass beads (450-500 μm) were lysed mechanically by six 30 second vortexing steps interrupted by cooling on ice for at least 30 second in 50 ml screw cap polypropylene tubes. The lysate was cleared by 4,000 g centrifugation for 15 minutes at 4 degrees C and stored at […] for up to several weeks.
PKC catalytic activity. […] Phosphatidylserine in chloroform, with or without PMA was evaporated under N2 to dryness, resuspended in 20 mM Tris pH 7.5, mixed and sonicated at 4 degrees C for 45 seconds before use. To terminate the reaction the sample was placed on phosphocellulose paper (Whatman P81) which was repeatedly washed in 75 mM phosphoric acid. Bound radioactivity was determined by liquid scintillation spectroscopy.

Data set [4] has as its system Saccharomyces cerevisiae strain 334 expressing bovine PKC alpha. Kind of data set: Cell doubling time of yeast cultures expressing PKC alpha wild type and mutant cDNAs. The note with it: 2% galactose; for average cell doubling time: synthetic minimal medium, CD26 and ND153 values phorbol ester-independent. It is filed as cell-based. As for the experimental part: FIG. 2 is a graph of cell doubling time of yeast cultures expressing PKC alpha wild type and mutant cDNAs. Freshly saturated cultures expressing control plasmids (Cont.), normal PKC alpha (PKCa) or deletion mutants D172-225, ND153 or CD26 were diluted to low cell densities. Cell growth was followed on a roller at 30 degrees C to measurable cell densities of the logarithmic growth phase at 0.2-0.6 O.D. 600. […] Average doubling times were calculated.
Yeast strains and culture conditions. PKC expression plasmids and YEp51 or YEp52 as controls were introduced into Saccharomyces cerevisiae strain 334 [MAT alpha, pep 4-3, prb1-122, ura 3-52; leu2-3, 112, reg1-501, gal1]by lithium acetate transformation See e.g., Ito et al. 1983, J. Bacterial. 153: 163. Cells were routinely grown at 30 degrees C on a culture roller or shaker in liquid culture or on 1.5% agar plates. The synthetic medium contained 2% glucose and was leucine-free to select for stable propagation of the expression plasmids. Expressing yeast colonies were identified phenotypically by replica plating on medium containing or lacking PMA. Phenol extracts of crude cell lysates were prepared to re-transform Escherichia coli DH5 alpha. PKC mutants were characterized by DNA sequencing and defined plasmids were re-introduces into S. cerevisiae 334. These strains were used in all experiments shown. 50 ml cultures were routinely inoculated from freshly saturated cultures and grown for 16 h to an optical density of 0.4 at O.D.600.
Cell doubling times were measured by O.D.600 reading of liquid cultures in the presence of 2% galactose as shown in FIG. 2 to test whether they correlate with the specific phenotypes (colony size) caused by normal mutant PKC alpha. […] A normal 4 hours doubling time was measured for all constructs in the absence of galactose.

Data set [5] concerns bovine PKC alpha. Kind of data set: [3H]PDBu binding to yeast spheroplasts expressing PKC alpha forms. The note with it: 14 nM [3H]PDBu. As to the method: FIG. 3 is a graph of phorbol ester binding to cells expressing PKC alpha wild type and mutant proteins.
Phorbol ester binding. About 6×10^8 expressing cells were washed twice in 10 mM K-phosphate buffer pH 7.0, 20 mM EDTA, once in 1M sorbitol and were resuspended in 10 ml 10 mM K-phosphate buffer pH 7.0, 1.1M sorbitol, 0.5 mM CaC12. Cells were incubated with 1 U glusulase (beta-glucuronidase/arylsulfatase from Helix pomatia, Boehringer Mannheim) for about 1 hour under shaking at 30 degrees C to remove the cell wall until test cell suspensions cleared in H2 O due to cell lysis.
Both were about 13-fold elevated over background levels of control cells. Similar findings have been reported for PKC overexpression in transfected mammalian fibroblasts. […] The internal deletion of aa 172-225 led to phorbol ester binding levels reduced by 60% compared to normal PKC alpha, a potential consequence of the removal of parts of the C2 domain.

For a further data set, the target named is T1, rat PKC β-1 (Rattus norvegicus, UniProt P68403).
T1 construct: we inserted the complete protein coding cDNA of rat PKC β-1; made in house; host or cells: Saccharomyces cerevisiae strain 334, YEp51 with GAL10 promoter; crude detergent cell extract
Kind of data set: PKC beta-1 enzymatic activity in detergent cell extracts. Format: biochemical. Particulars: phospholipid dependent. As for the experimental part: Duplicate measurements have routinely been made in our experiments. […] The methods described here are for the bovine PKC alpha experiments. The same or similar methods were used in the rat PKC beta-1 experiments.
PKC catalytic activity. PKC catalytic activity was measured as described in Hu et al., 1990, J. Biol. Chem. 265: 13864 by phosphorylation of 3 μg of the specific substrate peptide […] (Seq. ID No. 7) (Gibco, BRL) in the presence of 5 μCi [gamma-32P]ATP (3000 Ci/mmol) in 125 μl of 5-fold diluted cell extract for 30 min. at 25 degrees C with combinations of 160 μg/ml phosphatidylserine (Avanti Polar Lipids, Inc.), 1 μm PMA and 5 mM CaCl2. […] Bound radioactivity was determined by liquid scintillation spectroscopy.
To compare the enzymatic activity of normal and truncated PKC forms, phosphorylation of the PKC-specific substrate [ser^25 ]PKC19-31 a derivative of the pseudosubstrate sequence was measured in detergent cell extracts in response to combinations of phosphatidylserine, the phorbol ester PMA (phorbol-12-myristate-13-acetate), and Ca^2+. In the presence of phosphatidylserine alone only a background level of phosphorylation was detected in all samples including control cells which likely represents the activity of other endogenous yeast protein kinases.

T1 sequence (P68403 2-671): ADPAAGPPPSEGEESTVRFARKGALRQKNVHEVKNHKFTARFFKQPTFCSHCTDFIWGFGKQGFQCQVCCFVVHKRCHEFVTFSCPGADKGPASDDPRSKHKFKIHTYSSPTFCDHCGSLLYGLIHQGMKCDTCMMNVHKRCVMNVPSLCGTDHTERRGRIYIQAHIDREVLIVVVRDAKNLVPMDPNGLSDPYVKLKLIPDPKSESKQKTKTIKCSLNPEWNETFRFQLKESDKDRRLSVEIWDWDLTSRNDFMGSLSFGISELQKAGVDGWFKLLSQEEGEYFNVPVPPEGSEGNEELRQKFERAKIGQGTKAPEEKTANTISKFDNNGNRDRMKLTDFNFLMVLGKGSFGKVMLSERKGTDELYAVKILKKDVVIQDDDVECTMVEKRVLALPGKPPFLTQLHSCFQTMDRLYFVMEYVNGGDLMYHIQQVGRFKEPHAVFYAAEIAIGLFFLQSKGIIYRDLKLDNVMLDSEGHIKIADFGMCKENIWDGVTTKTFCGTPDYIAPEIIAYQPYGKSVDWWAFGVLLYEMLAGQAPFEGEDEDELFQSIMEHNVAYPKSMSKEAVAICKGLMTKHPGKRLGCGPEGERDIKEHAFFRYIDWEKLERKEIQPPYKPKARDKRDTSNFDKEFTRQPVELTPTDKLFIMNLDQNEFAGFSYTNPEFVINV

As to CD26: PKCa deletion of aa 647-672, in data set [1], the “Ca2+ uptake after PMA stimulation over the control cell background” value (“Ca2+ uptake … over the control cell background” for short) was “unaffected by phorbol ester” and the “increase in Ca^2+ uptake (basal)” value is given as “same basal response as control cells”. The “yeast colony size / phenotype” value in data set [2] was “wild-type phenotype under any condition”. Besides, in the data set on bovine PKC alpha [3], the “PMA and Ca^2+ stimulated mutant PKC activity: Ca^2+” value was “-”; the “PMA and Ca^2+ stimulated mutant PKC activity: PMA” value is given as “-”; the “PMA and Ca^2+ stimulated mutant PKC activity: -” value is given as “-”. Besides, the “catalytic activity under any conditions” value in the data set on bovine PKC alpha [3] (combinations of phosphatidylserine, PMA and calcium) is given as “no activity was detected”. In addition, the “average cell doubling time” value in data set [4] (absence of phorbol ester) stood at 4 h. The “[3H]PDBu binding level over background levels of control cells” value in the data set on bovine PKC alpha [5] is on record as “about 13 fold”.

ND153: PKCa deletion of aa 1-153: in data set [1], the “Ca2+ uptake … over the control cell background” value is given as “unaffected by phorbol ester” and the “increase in Ca^2+ uptake (basal)” value was approximately 3 fold. In addition, the “yeast colony size / phenotype” value in data set [2] is given as “microscopically small colonies independent of phorbol ester activation”. Also, in the data set on bovine PKC alpha [3], the “PMA and Ca^2+ stimulated mutant PKC activity: Ca^2+” value is “++”; the “stimulation of catalytic activity by phorbol ester” value is on record as “PMA-unresponsive”; the “PMA and Ca^2+ stimulated mutant PKC activity: PMA” value is given as “+”; the “PMA and Ca^2+ stimulated mutant PKC activity: -” value is “+”. Besides, the “catalytic activity in the presence of phosphatidylserine alone (elevated level)” value in the data set with bovine PKC alpha [3] is 10 fold. Also, the “average cell doubling time” value in data set [4] (absence of phorbol ester) is recorded as 12 h. Also, the “[3H]PDBu binding level over background levels of control cells” value in the data set with bovine PKC alpha [5] is recorded as “virtually background”.

Consider “PKC alpha: bovine protein kinase C alpha, full length, expressed in yeast”, for which, in data set [1], the “Ca2+ uptake … over the control cell background” value was “up to 4 fold” and the “increase in Ca^2+ uptake (basal)” value is listed as 1.4 fold. The yeast colony size entry in data set [2] (absence of phorbol ester) is listed as “reduced colony sizes”. Moreover, the yeast colony size result in data set [2] (phorbol ester activation (1 uM PMA)) is “substantially reduced yeast colony size; also recorded: substantially further decreased to microscopically small sizes”. Also, in the data set on bovine PKC alpha [3], the “PMA and Ca^2+ stimulated mutant PKC activity: Ca^2+” value is “++”; the “stimulation of catalytic activity by phorbol ester” value is reported as “more than 20 fold”; the “PMA and Ca^2+ stimulated mutant PKC activity: PMA” value is recorded as “++”; the “PMA and Ca^2+ stimulated mutant PKC activity: -” value was “-”. For the same substance, the “catalytic activity in the presence of phosphatidylserine alone (elevated level)” value with bovine PKC alpha [3] is on record as “no catalytic activity was detected”. Also, in data set [4] (absence of phorbol ester), the “increase in the cell doubling time” value was 50% and the “average cell doubling time” value was 6 h. In addition, in data set [4] (phorbol ester stimulation (1 μM PMA)), the cell doubling time is 16 h. Moreover, in the data set with bovine PKC alpha [5], the “[3H]PDBu binding level over background levels of control cells” value was “about 13 fold”.

Turning to diacylglycerol, the “stimulation of PKC β-1 catalytic activity” value on rat PKC β-1 is reported as “stimulated by diacylglycerol similar to PMA”.
